Several values for one entry are separate records, joined by “and”; a condition that tells them apart may be missing. Equal entries are not always repeated. One block for each compound: values may come before it.
Legend:
[1] = system: chicken erythrocyte nuclear chromatin; assay: Removal of acridine orange from stained chicken erythrocyte nuclear chromatin by xanthine rinse, fluorescence microscopy; conditions: for Nuclear color, Stain: before xanthine rinse; for Nuclear color, Re-stain: re-stained after xanthine rinse; for Nuclear color, After Rinse: xanthine rinse 50 mM, 1 hour, static
Protocol: Experiments were conducted to determine whether xanthines with known binding affinities to AO could compete with nuclear DNA for binding to AO and, therefore, be able to remove AO from its intercalation position within nuclear chromatin. Fluorescence microscopy was used to observe the fluorescent color produced by the AO-DNA complex following the staining of chicken erythrocyte nuclear chromatin with AO at both 5 μM and 5 mM.
Microscope slides smeared with chicken erythrocytes were stained with either 5 μM or 5 mM AO for a period of 30 minutes followed by three 10 second rinses in distilled water before drying at room temperature. Slides were then examined by fluorescence microscopy using a, Zeiss Model 63 Microscope with a xenon source fluorescent emitter. In some instances, a blocking filter was used to filter out fluorescence emission in the red and higher wavelengths. Photomicrographs were taken with Kodak Gold 35 mm ASA 1600 speed film, developed and color prints made. Comparative photomicrographs were taken at the same magnification and at the same exposure time. Selected photomicrographs were digitally scanned (Hewitt-Packard, Model 4L Scanner, Palo Alto, Calif.) and stored on 100 MB ZIP cartridges.
Slides were again examined by fluorescence microscopy and fluorescence color of the nuclei recorded. Slides were again stained with 5 mM AO then re-examined by fluorescence microscopy and fluorescence color of the nuclei recorded.
In the example shown in Table 4-3, the chicken erythrocytes were smeared and dried on a microscope slide prior to exposure to the AO solution for 30 minutes followed by water rinses to remove excess AO. Following drying, each slide was observed under fluorescence microscopy then placed in one of the xanthine solutions (50 ml volume) for 1 hour under static conditions, rinsed with water, then dried prior to being observed by fluorescence microscopy without a red blocking filter. Finally, each slide was restained following the initial staining procedures and again observed by fluorescence microscopy. Kassoc values are taken from Table 2-1 and are expressed in M^−1.

[2] = Optical titration (absorbance) of acridine orange with xanthines/purines, Kassoc from delta absorbance; format: binding; conditions: for Kassoc ± S.E.: binding affinity between acridine orange (10 μM) and compound, 5 mM HEPES pH 7.0, 25±1° C., 0 = no measurable association detected; for complex formation / binding affinity with AO: optical titration
Protocol: A red spectral shift in the optical adsorption maximum of AO upon the addition of a particular xanthine, indicates the possibility of a complex being formed between the two compounds. Spectral shifts can be measured by optical titrations.
Optical titrations (serial additions of various xanthines to a solution of AO) were performed on a Beckman DU-600 Scanning Spectrophotometer (Beckman Instrument Co., New York, N.Y.) using a 3 mL (1-cm light path) quartz cuvette containing 2.0 mL of a […]. The DU600 Spectrophotometer was blanked with 2 mL of a pH 7.0 buffered 5 mM HEPES solution over the full range of wavelengths to be scanned prior to sample analysis. This reduced the need to subtract the background absorbance from the HEPES buffer. Optical absorbance scans were performed over a wavelength range preferably from 400 nm to 550 nm. […] The 10 μM AO solution was scanned before the start of each titration series to quantitatively monitor any changes in the absorbance spectrum. Optical absorbance experiments were performed using aliquots varying in volume from 1:L to 20:L taken from prepared xanthine stock solutions (5 mM to 50 mM) and titrated into the cuvette containing 2.0 mL of the 10 μM AO solution. The solution in the cuvette was then thoroughly mixed by 10 seconds of shaking before scanning. All titrations were performed at room temperature (25±1° C.). The absorbance spectra were measured in 1 nm intervals and stored in digital form. Digitized scan data was converted to a Lotus Spreadsheet file (*.wk1) using a conversion program supplied by the manufacturer (Beckman Instruments Inc.) then imported into a Microsoft Excel 97™ Workbook file (*.xls) and saved in this format for further analysis. Spectral data for each titration was combined and expressed in graphic form (Excel™) (X-axis=wavelength in nm; Y-axis=optical absorbance) for each xanthine titrated with AO. […] Adjusted absorption values were plotted and compared to spectra from non-complexed AO. This allowed for the visualization of an expected spectral shift that occurs when AO forms a complex with a xanthine.
The association constant, Kassoc, may be used to analyze the binding ability of modified xanthines to DNA intercalators. The association constant may be calculated based upon a differential shift in the absorbance spectrum. When the presence of the xanthine caused a spectral shift, a difference absorbance plot or delta plot was obtained. Delta plots were constructed by subtracting the adjusted absorption spectrum of AO in the presence of the xanthine from the initial spectrum of AO alone at each wavelength and for each aliquot of the titration. This procedure allowed for the creation of difference absorption values or delta absorption values. Delta absorption values obtained in this manner (Y-axis=delta absorption) were plotted against wavelength in nm (X-axis). The appearance of a single isobestic point was indicative of only two species present in solution, AO, and an AO complex. Graphic representation allowed for the selection of a wavelength with the maximum sensitivity for determining the association constant. This wavelength was characterized by the greatest positive response in delta absorbance values observed upon addition of each aliquot of xanthine to the AO solution. The AO-xanthine association or binding constant was determined by the following equilibrium expression: I+X≡IX EQUATION 1: […]
Where I represents the intercalator (AO), X represents the interceptor molecule (xanthine), and IX represents the AO-xanthine complex, respectively.

[3] = system: chicken erythrocyte nuclear chromatin; assay: Blocking of acridine orange intercalation into chicken erythrocyte nuclear chromatin, fluorescence microscopy; parameters: key: 0: no blocking effect; 1: slight blocking; 2: moderate blocking; 3: almost total blocking (very slight green fluorescence detectable); 4: complete blockage (no green fluorescence detectable); conditions: 10 μM AO
Protocol: Microscope slides coated with chicken erythrocyte were stained with 10 μM AO at three separate areas on the microscope slide as described above. Slides were exposed to […] different xanthies at four different molar ratios for three different periods of time. The xanthines, theophylline, caffeine, 1,3,7,9-tetramethyl uric acid, and aminophylline, were prepared with 10 μM AO at molar ratios of 50:1, 500:1, 2500:1, 5000:1 xanthine to AO in distilled water. Microscope slides coated with chicken erythrocytes were exposed to a mixture of xanthine/AO at each molar ratio for periods of 10 min, 1 min, and 10 seconds under static (non-agitated) conditions. […] Following exposure to the xanthine/AO or to the DNA/AO solutions, the slides were rinsed in distilled water, allowed to dry at room temperature, examined by fluorescence microscopy, and the color of the nuclei recorded. Results were recorded as follows: 0=no blocking effect; 1=slight blocking; 2=moderate blocking; 3=almost total blocking (very slight green fluorescence detectable); 4=complete blockage (no green fluorescence detectable).
In the implementation shown in Table 4-2, the relative intensity of the green fluorescent color ([…]) utilizing a red blocking filter (≧600 nm) was used as the indicator of the intensity of staining. The molar ratio is expressed as the ratio of xanthine concentration to 10 μM AO. Results were recorded as follows: 0=no blocking effect; 1=slight blocking; 2=moderate blocking; 3=almost total blocking (very slight green fluorescence detectable); 4=complete blockage (no green fluorescence detectable). *Kassoc values for the xanthines are taken from Table 2-1 and the Kassoc values for DNA were taken from Table 3-2.

[4] = Table 2-2, Kassoc value with acridine orange (this report)
[5] = Table 4-2, in parentheses under compound, taken from Table 2-1
[6] = Table 4-3, taken from Table 2-1
[7] = Xanthine/AO molar ratio 5000:1, exposure 10 min
[8] = molar ratio 50:1, exposure 10 sec
[9] = molar ratio 50:1, exposure 1 min
[10] = molar ratio 50:1, exposure 10 min
[11] = molar ratio 500:1, exposure 10 sec
[12] = molar ratio 500:1, exposure 1 min
[13] = molar ratio 500:1, exposure 10 min
[14] = molar ratio 2500:1, exposure 10 sec
[15] = molar ratio 2500:1, exposure 1 min
[16] = molar ratio 2500:1, exposure 10 min
[17] = molar ratio 5000:1, exposure 10 sec
[18] = molar ratio 5000:1, exposure 1 min

SMILES: Cn1c(=O)c2[nH]cnc2n(C)c1=O [1,3-dimethyl xanthine (theophylline), 1,3-dimethyl xanthine]
- Nuclear color, Stain ([1]; AO [5 μM] 30 minutes): Green
- Nuclear color, Re-stain ([1]; AO [5 μM]): Green
- Nuclear color, After Rinse ([1]; AO [5 μM]): Green
- Nuclear color, Stain ([1]; AO [5 mM] 30 minutes): Red
- Nuclear color, Re-stain ([1]; AO [5 mM]): Red
- Nuclear color, After Rinse ([1]; AO [5 mM]): Red
- Kassoc [2, 4]: 157 M⁻¹
- Kassoc [2, 5]: (157) M^−1
- Kassoc [2, 6]: 161 M⁻¹
- Kassoc ± S.E. [2]: 160.8 M⁻¹
- blocking of AO intercalation [3, 7]: 0
- blocking of AO intercalation [3, 8]: 0
- blocking of AO intercalation [3, 9]: 0
- blocking of AO intercalation [3, 10]: 0
- blocking of AO intercalation [3, 11]: 0
- blocking of AO intercalation [3, 12]: 0
- blocking of AO intercalation [3, 13]: 0
- blocking of AO intercalation [3, 14]: 0
- blocking of AO intercalation [3, 15]: 0
- blocking of AO intercalation [3, 16]: 0
- blocking of AO intercalation [3, 17]: 0
- blocking of AO intercalation [3, 18]: 0

SMILES: Cn1c(=O)c2[nH]c(=O)[nH]c2n(C)c1=O [1,3-dimethyl-8-oxy xanthine]
- Kassoc ± S.E. [2]: 38.5 M⁻¹ and 38.5 ± 2.2 M⁻¹
- complex formation / binding affinity with AO [2]: failed to exhibit any significant binding affinity for AO

SMILES: Cn1c(=O)[nH]c2[nH]c(=O)[nH]c2c1=O [1-methyl-8-oxy xanthine]
- Kassoc ± S.E. [2]: 0 M⁻¹
- complex formation / binding affinity with AO [2]: failed to exhibit any significant binding affinity for AO

SMILES: Cn1c(=O)[nH]c2nc[nH]c2c1=O [1-methyl xanthine]
- Kassoc [2, 4]: 79^a M^−1
- Kassoc ± S.E. [2]: 79.2 ± 2.0 M⁻¹
- complex formation / binding affinity with AO [2]: failed to exhibit any significant binding affinity for AO

SMILES: Clc1ncnc2nc[nH]c12 [6-chloro purine]
- Kassoc ± S.E. [2]: 0 M⁻¹

- complex formation / binding affinity with AO [2]: little or no affinity to complex with AO
SMILES: Cn1cnc2[nH]c(=O)[nH]c(=O)c21 [7-methyl xanthine]
- Kassoc ± S.E. [2]: 0 M⁻¹

- complex formation / binding affinity with AO [2]: little or no affinity to complex with AO
SMILES: Cn1c(=O)[nH]c(=O)c2[nH]cnc21 [3-methyl xanthine]

- complex formation / binding affinity with AO [2]: little or no affinity to complex with AO
SMILES: Cn1c(=O)[nH]c2[nH]c(=O)[nH]c(=O)c21 [7-methyl-8-oxy xanthine]
- Kassoc ± S.E. [2]: 0 M⁻¹

SMILES: Cn1c(=O)c2[nH]c(Cl)nc2n(C)c1=O [1,3-dimethyl-8-chloro xanthine]
- Kassoc ± S.E. [2]: 412.5 ± 11.7 M⁻¹
- complex formation / binding affinity with AO [2]: failed to exhibit any significant binding affinity for AO

SMILES: Cn1c(=O)c2c(n(C)c1=O)n(C)c(=O)n2C [1,3,7,9-tetramethyl-8-oxy xanthine]
- effect of xanthine rinse on fluorescence of AO stained nuclear chromatin ([1]; 50 mM xanthine rinse): removal of most, if not all, green and red color
- Nuclear color, Stain ([1]; AO [5 μM] 30 minutes): Green
- Nuclear color, Re-stain ([1]; AO [5 μM]): Green
- Nuclear color, After Rinse ([1]; AO [5 μM]): None
- Nuclear color, Stain ([1]; AO [5 mM] 30 minutes): Red
- Nuclear color, Re-stain ([1]; AO [5 mM]): Red
- Nuclear color, After Rinse ([1]; AO [5 mM]): None
- Kassoc [2, 4]: 552 M⁻¹
- Kassoc [2, 5]: (552) M^−1
- Kassoc [2, 6]: 552 M⁻¹
- Kassoc ± S.E. [2]: 551.5 ± 9.0 M⁻¹
- Kassoc ± S.E. ([2]; listed as 1,3,7,9-tetramethyl uric acid): 552 M⁻¹
- blocking of AO intercalation [3, 7]: 2
- blocking of AO intercalation [3, 8]: 0
- blocking of AO intercalation [3, 9]: 0
- blocking of AO intercalation [3, 10]: 0
- blocking of AO intercalation [3, 11]: 0
- blocking of AO intercalation [3, 12]: 0
- blocking of AO intercalation [3, 13]: 0
- blocking of AO intercalation [3, 14]: 0
- blocking of AO intercalation [3, 15]: 1
- blocking of AO intercalation [3, 16]: 1
- blocking of AO intercalation [3, 17]: 2
- blocking of AO intercalation [3, 18]: 2

- complex formation / binding affinity with AO [2]: did not complex with AO
SMILES: O=c1[nH]c(=O)c2[nH]c(=O)[nH]c2[nH]1 [uric acid (8-oxy xanthine), 8-oxy xanthine]
- Kassoc ± S.E. [2]: 0 M⁻¹

SMILES: Cn1cnc2ncnc-2c1N [1-methyl-6-amino purine]
- Kassoc ± S.E. [2]: ~14 M⁻¹

SMILES: Cc1ncnc2nc[nH]c12 [6-methyl purine]
- Kassoc ± S.E. [2]: 0 M⁻¹

SMILES: c1ncc2[nH]cnc2n1 [Purine]
- Kassoc ± S.E. [2]: ~2 M⁻¹

SMILES: Cn1c(=O)[nH]c2ncn(C)c2c1=O [1,7-dimethyl xanthine]
- Kassoc [2, 4]: 155 M⁻¹
- Kassoc ± S.E. [2]: 155.3 ± 3.1 M⁻¹

SMILES: COc1nc(N)nc2nc[nH]c12 [2-amino-6-methoxy purine]
- Kassoc ± S.E. [2]: ~2 M⁻¹
